Experimental data published in ChEMBL document CHEMBL3044607, “Quantitative structureactivity relationships of imidacloprid and its analogs with substituents at the C5 position on the pyridine ring in the neuroblocking activity” (J Pestic Sci, 2006).

Tested on: Periplaneta americana
Test: Insecticidal activity against Periplaneta americana (American cockroach) assessed as neuroblocking concentration
Assay type: functional

SMILES	log(1/BC)
CCCCc1cc(CN2CCN/C2=N\[N+](=O)[O-])cnc1Cl	3.79
O=[N+]([O-])/N=C1\NCCN1Cc1cnc(Cl)c(-c2ccccc2)c1	4.46
O=[N+]([O-])/N=C1\NCCN1Cc1ccc(Cl)nc1 [IMIDACLOPRID]	5.7
CCCCCOc1cc(CN2CCN/C2=N\[N+](=O)[O-])cnc1Cl	3.59
O=[N+]([O-])/N=C1\NCCN1Cc1cnc(Cl)c(Br)c1	5.51
O=[N+]([O-])/N=C1\NCCN1Cc1cnc(Cl)c(Cl)c1 [5-CHLOROIMIDACLOPRID]	5.61
CCCOc1cc(CN2CCN/C2=N\[N+](=O)[O-])cnc1Cl	4.56
CCCc1cc(CN2CCN/C2=N\[N+](=O)[O-])cnc1Cl	4.51
CCc1cc(CN2CCN/C2=N\[N+](=O)[O-])cnc1Cl	4.66
N#Cc1cc(CN2CCN/C2=N\[N+](=O)[O-])cnc1Cl	4.59
O=[N+]([O-])/N=C1\NCCN1Cc1cnc(Cl)c([N+](=O)[O-])c1	3.6
O=[N+]([O-])/N=C1\NCCN1Cc1cnc(Cl)c(C(F)(F)F)c1	4.43
CCCCOc1cc(CN2CCN/C2=N\[N+](=O)[O-])cnc1Cl	4.58
O=[N+]([O-])/N=C1\NCCN1Cc1cnc(Cl)c(I)c1	5.3
O=[N+]([O-])/N=C1/NCCN1Cc1cnc(Cl)c(F)c1 [5-FLUOROIMIDACLOPRID]	5.99
Cc1cc(CN2CCN/C2=N\[N+](=O)[O-])cnc1Cl	5.25
CC(C)Oc1cc(CN2CCN/C2=N\[N+](=O)[O-])cnc1Cl	4.46
COc1cc(CN2CCN/C2=N\[N+](=O)[O-])cnc1Cl	4.98
[N-]=[N+]=Nc1cc(CN2CCN/C2=N\[N+](=O)[O-])cnc1Cl [5-AZIDOIMIDACLOPRID]	4.98
CCOc1cc(CN2CCN/C2=N\[N+](=O)[O-])cnc1Cl	4.66
COC(=O)c1cc(CN2CCN/C2=N\[N+](=O)[O-])cnc1Cl	3.92
